# Measurements reported in ChEMBL document CHEMBL3608209, “N-Aryl benzenesulfonamide inhibitors of [3H]-thymidine incorporation and β-catenin signaling in human hepatocyte-derived Huh-7 carcinoma cells” (Bioorg Med Chem Lett, 2015).
# How the values were obtained:
# [1] = system: Huh-7; assay: Inhibition of Wnt/beta catenin in human HuH7 cells assessed as [3H]-thymidine incorporation at 10 uM by scintillation counting analysis relative to DMSO-treated control; format: cell-based
# [2] = system: Huh-7; assay: Inhibition of Wnt/beta catenin in human HuH7 cells assessed as [3H]-thymidine incorporation at 10 uM by scintillation counting analysis relative to FH535; format: cell-based
# [3] = system: Huh-7; assay: Inhibition of Wnt/beta catenin in human HuH7 cells assessed as [3H]-thymidine incorporation at 10 uM by scintillation counting analysis relative to DMSO-treated control; values are per cent of control
# [4] = system: Huh-7; assay: Inhibition of Wnt/beta catenin in human HuH7 cells assessed as decrease in TCF/LEF-dependent promoter activation at 10 uM after 36 hrs by TOPFlash luciferase reporter gene assay relative to control; format: cell-based
SMILES,inhibition [1] [%],fold change (FC) [2],"level, % of control [3] [%]",inhibition [4] [%]
O=S(=O)(Nc1ccccc1Oc1ccccc1)c1c(Cl)cccc1Cl,38,1.1,62,45
Cc1cc(CO)ccc1NS(=O)(=O)c1c(Cl)cccc1Cl,73,2,27,13
O=S(=O)(Nc1cccc(OCc2ccccc2)c1)c1c(F)cccc1F,43,1.2,57,–
O=[N+]([O-])c1ccc(NS(=O)(=O)c2c(Cl)cccc2Cl)c2ccccc12,26,0.7,74,47
O=S(=O)(Nc1ccccc1Oc1ccccc1)c1c(F)cccc1F,34,0.9,66,–
O=S(=O)(Nc1cccc(OCc2ccccc2)c1)c1ccccc1,29,0.8,71,–
O=C(c1ccccc1)c1ccc(NS(=O)(=O)c2c(Cl)cccc2Cl)cc1,33,0.9,67,–
Cc1cc(CO)ccc1NS(=O)(=O)c1c(F)cccc1F,38,1.1,62,–
COC(=O)c1ccc(NS(=O)(=O)c2c(Cl)cccc2Cl)c(C)c1,29,0.8,71,–
O=[N+]([O-])c1ccc(NS(=O)(=O)c2cc(F)ccc2F)c2ccccc12,31,0.9,69,64
Cc1cc(CO)ccc1NS(=O)(=O)c1cc(Cl)ccc1Cl,67,1.9,33,–
Cc1cc(CO)ccc1NS(=O)(=O)c1ccccc1,53,1.5,47,–
COC(=O)c1cc(Cl)ccc1NS(=O)(=O)c1cc(Cl)ccc1Cl,0,0,106,–
O=[N+]([O-])c1ccc(NS(=O)(=O)c2ccccc2)c2ccccc12,42,1.2,58,72
O=S(=O)(Nc1cccc(OCc2ccccc2)c1)c1c(Cl)cccc1Cl,31,0.9,69,53
COC(=O)c1ccc(NS(=O)(=O)c2cc(Cl)ccc2Cl)c(C)c1,18,0.5,82,–
O=C(c1ccccc1)c1ccc(NS(=O)(=O)c2c(F)cccc2F)cc1,33,0.9,67,–
Cc1cc([N+](=O)[O-])ccc1NS(=O)(=O)c1cc(Cl)ccc1Cl,36,–,64,73
O=C(c1ccccc1)c1ccc(NS(=O)(=O)c2ccccc2)cc1,38,1.1,62,46
O=[N+]([O-])c1ccc(NS(=O)(=O)c2cc(Cl)ccc2Cl)c2ccccc12,48,1.3,52,–
COC(=O)c1cc(F)ccc1NS(=O)(=O)c1cc(Cl)ccc1Cl,7,0.2,93,61
